{"source": "patent US12486528B2", "about": "“Compositions and methods for measuring and inhibiting calpain-5 activity” (The Board of Trustees of the Leland Stanford Junior …, priority 2019, dated 2025)", "key": {"CAPN5 wild-type": {"biological_target": "CAPN5 wild-type (Homo sapiens, UniProt O15484)", "sequence (O15484 whole entry)": "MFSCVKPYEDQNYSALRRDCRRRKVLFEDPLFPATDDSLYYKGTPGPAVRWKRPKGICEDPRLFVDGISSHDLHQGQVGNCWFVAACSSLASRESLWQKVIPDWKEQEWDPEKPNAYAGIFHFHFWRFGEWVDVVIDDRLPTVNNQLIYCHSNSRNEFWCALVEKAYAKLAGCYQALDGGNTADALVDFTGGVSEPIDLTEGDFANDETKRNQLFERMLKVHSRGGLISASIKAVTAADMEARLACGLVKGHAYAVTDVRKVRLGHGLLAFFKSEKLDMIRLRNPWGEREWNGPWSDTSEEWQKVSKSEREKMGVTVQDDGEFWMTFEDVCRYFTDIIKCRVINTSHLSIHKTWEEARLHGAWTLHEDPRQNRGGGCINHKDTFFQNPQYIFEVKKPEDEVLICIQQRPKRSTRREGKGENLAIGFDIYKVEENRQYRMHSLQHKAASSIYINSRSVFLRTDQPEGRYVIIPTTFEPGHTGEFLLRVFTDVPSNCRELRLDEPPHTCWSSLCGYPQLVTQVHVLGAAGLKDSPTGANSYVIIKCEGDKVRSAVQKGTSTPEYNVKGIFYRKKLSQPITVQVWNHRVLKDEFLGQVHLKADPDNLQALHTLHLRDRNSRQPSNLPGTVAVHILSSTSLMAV", "assay": "FRET-based CAPN5 inhibition assay, wild-type protease", "assay_type": "biochemical", "details": "for IC50: CAPN5 WT; for inhibition of wildtype CAPN5: CAPN5 wild-type", "description": "(§1) We have optimized the CAPN5 assay and developed a high throughput CAPN5 inhibition assay which utilizes 384-well plates and uses less than 50 nM protease for each experimental condition. Calpain proteolytic activity was measured by hydrolysis of DABCYL-TPLKSPPPSPR (SEQ ID NO:3)-EDANS (Calpain Substrate III; Calbiochem). Briefly, 50 nM of purified CAPN5-G267S protease core domain was added to a reaction buffer containing 50 mM imidazole (pH 7.0), 200 mM NaCl, 20 mM CaCl2, 1 mM EDTA, 8 mM Li-acetate, 0.19 mM Facade®-EPC, 1 mM TCEP, 0.8% (v/v) glycerol, 4% (v/v) 1,3-butanediol. 8 μL of protease was added to each well of the 384-well plates. Varying concentrations of […] (final concentration of 0.1 μM to 100 μM; 4 μL in each well) were added and the reaction was incubated at 37° C. for 30 minutes. After incubation, 8 μL of Calpain Substrate III was added to each well (final concentration of 40 μM; total reaction volume was 20 μL) and EDANS signal was measured on a fluorimetric plate reader (Tecan Spark, Mannedorf Switzerland). All experiments were performed in triplicate. Reaction rates were fit to the Hill equation to determine the IC50 values in GraphPad Prism 8. This assay condition is compatible with CAPN1 and CAPN5 wild-type. We have chosen CAPN5-G267S for initial inhibitor screening, since it has higher activity than CAPN5 wild-type and the mutation is located at the G2-loop which is away from the active site that is likely to have identical specificity to CAPN5 wild-type specificity.\n(§2) We have identified the PDGFB protein as a substrate. We discovered a likely proteolytic site for CAPN5 on PDGFB, and sought to use this information to inhibit proteolysis assuming the alteration of a robust endogenous substrate of CAPN5 would create an opportunity for more specific inhibition of CAPN5. We generated two artificial peptides by methylating only P1-Lysine (1-Methylated; FIG. 7A) or both P1-Lysine and P1′-Lysine (2-Methylated; FIG. 7B) expecting the methylation would make the PDGFB peptide motif resistant to CAPN5 proteolysis. We tested their inhibitory potential against CAPN5-G267S using our high throughput FRET-based CAPN5 inhibition assay. […] We further tested them with the CAPN5 wild-type and CAPN5-R243L mutant proteases. Both methylated PDGFB peptides inhibited CAPN5-R243L activity at the nanomolar IC50 (FIG. 7E)."}, "CAPN5-R243L": {"biological_target": "CAPN5-R243L (Homo sapiens, UniProt O15484, R243L)", "sequence (O15484 whole entry R243L)": "as the sequence (O15484 whole entry) above, with R243L counted along it", "assay": "FRET-based CAPN5 inhibition assay, R243L mutant protease", "assay_type": "biochemical", "description": "as §1, §2"}, "CAPN5-PC p.G267S": {"biological_target": "T1, CAPN5-PC p.G267S (Homo sapiens, UniProt O15484, G267S)", "T1 construct": "active recombinant CAPN5 protease core (CAPN5-PC)", "T1 sequence (O15484 26-343 G267S limits assumed)": "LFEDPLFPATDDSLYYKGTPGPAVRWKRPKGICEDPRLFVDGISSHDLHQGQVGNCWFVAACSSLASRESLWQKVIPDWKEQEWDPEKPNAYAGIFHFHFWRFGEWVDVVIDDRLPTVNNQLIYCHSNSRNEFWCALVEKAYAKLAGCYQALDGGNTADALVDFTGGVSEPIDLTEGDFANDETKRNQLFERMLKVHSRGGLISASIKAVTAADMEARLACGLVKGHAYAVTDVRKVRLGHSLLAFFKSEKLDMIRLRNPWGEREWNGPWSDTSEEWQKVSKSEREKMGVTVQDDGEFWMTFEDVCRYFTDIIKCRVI", "assay": "In vitro CAPN5 activity assay with consensus FRET peptides", "assay_type": "biochemical", "details": "1.6 μM CAPN5-PC p.G267S, 10 mM Ca^2+", "description": "Consensus FRET peptides were synthesized based on the highest scoring amino acids at each position of the PSSM (Peptides P4′A, P4′P, P2R, and P3GP1′ V) and were tested in our in vitro CAPN5 activity assay (FIG. 9B). These substrates were hydrolyzed by 1.6 μM CAPN5-PC p.G267S in the presence of 10 mM Ca^2+. […] The catalytic efficiency (kcat/Km) of this peptide was higher than the observed kcat/Km for our previously determined PR1476 peptide (11 vs. 7 M^−1s^−1; FIG. 9D)."}, "[1]": {"biological_target": "T2, Calpain-5 protease core domain (CAPN5-PC) (Homo sapiens, UniProt O15484)", "T2 sequence (O15484 26-343 limits assumed)": "T1 sequence (O15484 26-343 G267S limits assumed) with S242G", "assay": "CAPN5 functional assay (FRET peptide substrate kinetics)", "method": "The assay was performed using a Greiner 96-well Black Small Volume plate according to the following protocol for measuring enzymatic activity of the calpain-5 protease: • Dilute CAPN5 in activity buffer to make a master mix at 3 concentrations. • Add 50 μL of substrate diluted with activity buffer (7 working concentrations at 2×). • Add 50 μL of CAPN5 to each well with multi-channel pipette. • Measure fluorescence activity (336/490 nm) on Tecan Spark at 37° C. for 2 hours with recordings taken every 2 minutes (with lid). • Convert RFU values to nM product using standard curve of EDANS concentrations (2 nM to 5 μM). • Calculate reaction velocity (slope) at each substrate concentration using linear regression. • Calculate Michaelis-Menten kinetic parameters in GraphPad Prism 8."}, "Human CAPN5-PC": {"biological_target": "Human CAPN5-PC (Homo sapiens, UniProt O15484)", "sequence (O15484 26-343)": "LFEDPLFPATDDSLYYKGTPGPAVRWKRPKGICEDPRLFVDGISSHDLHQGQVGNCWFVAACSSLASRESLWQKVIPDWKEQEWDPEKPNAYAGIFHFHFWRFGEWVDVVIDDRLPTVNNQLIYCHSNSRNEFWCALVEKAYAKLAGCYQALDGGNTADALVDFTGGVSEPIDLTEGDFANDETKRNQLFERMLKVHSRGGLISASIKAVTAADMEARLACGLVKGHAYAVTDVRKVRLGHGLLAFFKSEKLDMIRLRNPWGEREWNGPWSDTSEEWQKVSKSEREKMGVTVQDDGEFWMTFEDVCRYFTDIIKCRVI", "assay": "Human CAPN5-PC | Ki (µM)", "description": "Table printed on a drawing sheet, FIG. 1C\nHead of the field: Human CAPN5-PC | Ki (µM)\nThe patent's description of the figure: FIGS. 1A-1C show kinetic analysis of human CAPN5 and rat CAPN1 with the peptide substrates, RQNRGGGCINH (SEQ ID NO:1, FIG. 1A) and PLFAER (SEQ ID NO:2, FIG. 1B).\nFIGS. 1A-1B show kinetic analysis of human CAPN5 and rat CAPN1 with the peptide substrates, RQNRGGGCINH (SEQ ID NO:1, FIG. 1A) and PLFAER (SEQ ID NO:2, FIG. 1B) using this protocol. […] A 10 mM PR1476 master stock was prepared in 100% DMSO. 3.69 mM PR1478 master stock was prepared in 50% DMSO/50% activity buffer.\nFirst copying reader's note: Enzyme kinetic parameters of peptide substrates with calpain protease cores; the ± error stands inside the cells.\nWhere the first naming reader finds the target: head: Human CAPN5-PC"}}, "note": "Residue numbers refer to the chain shown, from its start. Like-named read-outs stand apart in the source and are kept apart here. No end group written: not given here.", "data": [{"molecule": "CCCC[C@@H](C=O)NC(=O)[C@H](CC(C)C)NC(=O)OCc1ccccc1", "note": "[Calpeptin]", "values": [{"measurement": "IC50", "setting": "CAPN5 wild-type", "result": "nanomolar"}, {"measurement": "inhibition of wildtype CAPN5", "setting": "CAPN5 wild-type", "result": "inhibit the wildtype"}, {"measurement": "inhibition of CAPN5-R243L (mutant CAPN5)", "setting": "CAPN5-R243L", "result": "did not show any inhibition"}, {"measurement": "inhibition of CAPN5-R243L (mutant CAPN5)", "setting": "CAPN5-R243L; listed as calpeptin", "result": "not the mutant CAPN5"}]}, {"molecule": "CC(=O)N[C@@H](CC(C)C)C(=O)N[C@@H](CC(C)C)C(=O)N[C@H](C=O)CCCNC(=N)N", "note": "[Leupeptin]", "values": [{"measurement": "IC50", "setting": "CAPN5 wild-type", "result": "nanomolar"}, {"measurement": "inhibition of wildtype CAPN5", "setting": "CAPN5 wild-type", "result": "inhibit the wildtype"}, {"measurement": "inhibition of CAPN5-R243L (mutant CAPN5)", "setting": "CAPN5-R243L", "result": "did not show any inhibition"}, {"measurement": "inhibition of CAPN5-R243L (mutant CAPN5)", "setting": "CAPN5-R243L; listed as leupeptin", "result": "not the mutant CAPN5"}]}, {"molecule": "EGKAVLEA (also: FRET labels, places not given here) [P3GP1′V, consensus FRET peptide substrate of calpain-5]", "values": [{"measurement": "hydrolysis by CAPN5-PC p.G267S", "setting": "CAPN5-PC p.G267S", "result": "hydrolyzed"}]}, {"molecule": "EVKALEEA (also: FRET labels, places not given here) [P4′A, consensus FRET peptide substrate of calpain-5]", "values": [{"measurement": "hydrolysis by CAPN5-PC p.G267S", "setting": "CAPN5-PC p.G267S", "result": "hydrolyzed"}]}, {"molecule": "EVKALEEP (also: FRET labels, places not given here) [P4′P, consensus FRET peptide substrate of calpain-5]", "values": [{"measurement": "hydrolysis by CAPN5-PC p.G267S", "setting": "CAPN5-PC p.G267S", "result": "hydrolyzed"}]}, {"molecule": "EVRALEEA (also: FRET labels, places not given here) [P2R, consensus FRET peptide substrate of calpain-5]", "values": [{"measurement": "hydrolysis by CAPN5-PC p.G267S", "setting": "CAPN5-PC p.G267S", "result": "hydrolyzed"}, {"measurement": "substrate turnover (kcat), preference", "setting": "CAPN5-PC p.G267S", "result": "preferred by CAPN5-PC"}]}, {"molecule": "RQNRGGGCINH (N-terminal Dabcyl, EDANS on glutamate, C-terminal cap; calpain-5 peptide substrate) [PR1476]", "values": [{"measurement": "activity as substrate with CAPN5", "setting": "[1]; CAPN5 0, 0.16, 0.49, 1.6 μm, peptide 0 μM to 160 μM", "result": "displays activity in a CAPN5 dose-dependent manner"}, {"measurement": "substrate quality / sensitivity to CAPN5-PC activity", "setting": "[1]; comparison between substrates", "result": "more sensitive than other generic calpain substrates"}]}, {"molecule": "RQNRGGGCINH (not fully specified (N-terminus)) [PR1476]", "values": [{"measurement": "Ki", "setting": "Human CAPN5-PC", "result": "43 ± 14", "unit": "µM"}]}]}
